Drawing on ChEMBL document CHEMBL1149662, “Design and synthesis of a library of tertiary amides: evaluation as mimetics of the melanocortins' active core” (Bioorg Med Chem, 2007), this text covers Ki for 16 compounds.

Assay [1] has as its target Melanocyte-stimulating hormone receptor (Mus musculus, UniProt Q01727). The assay can be described thus: Displacement of [125I]NDP-MSH from MC1 receptor in mouse B16 cells. It counts as cell-based. Background: Displacement assays read how much labelled ligand stays bound in the presence of the test substance.
A further assay concerns the target Melanocortin receptor 3 (Homo sapiens, UniProt P41968). In words: Displacement of [125I]NDP-MSH from human recombinant MC3 receptor expressed in Sf9 cells.
A further assay has as its target Melanocortin receptor 5 (Homo sapiens, UniProt P33032). The assay can be described thus: Displacement of [125I]NDP-MSH from human recombinant MC5 receptor expressed in Sf9 cells.
The target in the next assay is Melanocortin receptor 4 (Homo sapiens, UniProt P32245). The assay can be described thus: Displacement of [125I]NDP-MSH from human recombinant MC4 receptor expressed in Sf9 cells.
Melanocortin receptor 4, sequence (P32245 whole entry): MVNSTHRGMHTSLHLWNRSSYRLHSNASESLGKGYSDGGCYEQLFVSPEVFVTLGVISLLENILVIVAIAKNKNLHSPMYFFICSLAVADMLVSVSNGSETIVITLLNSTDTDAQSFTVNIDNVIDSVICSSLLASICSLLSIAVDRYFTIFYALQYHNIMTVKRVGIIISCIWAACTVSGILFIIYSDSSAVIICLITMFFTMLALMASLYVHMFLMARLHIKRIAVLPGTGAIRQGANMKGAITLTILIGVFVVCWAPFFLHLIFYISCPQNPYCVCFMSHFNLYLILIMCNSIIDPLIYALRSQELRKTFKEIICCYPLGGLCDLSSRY

Each structure is given as a SMILES string.

Melanocortin receptor 3, sequence (P41968 whole entry): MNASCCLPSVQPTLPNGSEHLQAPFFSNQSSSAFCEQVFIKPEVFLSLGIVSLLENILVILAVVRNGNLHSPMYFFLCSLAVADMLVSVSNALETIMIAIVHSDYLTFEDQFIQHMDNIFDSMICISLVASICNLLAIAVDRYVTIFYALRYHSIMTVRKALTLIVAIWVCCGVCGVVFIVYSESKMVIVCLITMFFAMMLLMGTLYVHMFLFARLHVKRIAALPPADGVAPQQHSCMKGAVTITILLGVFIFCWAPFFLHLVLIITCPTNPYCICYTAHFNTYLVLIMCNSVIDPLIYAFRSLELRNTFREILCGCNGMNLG
Melanocortin receptor 5, sequence (P33032 whole entry): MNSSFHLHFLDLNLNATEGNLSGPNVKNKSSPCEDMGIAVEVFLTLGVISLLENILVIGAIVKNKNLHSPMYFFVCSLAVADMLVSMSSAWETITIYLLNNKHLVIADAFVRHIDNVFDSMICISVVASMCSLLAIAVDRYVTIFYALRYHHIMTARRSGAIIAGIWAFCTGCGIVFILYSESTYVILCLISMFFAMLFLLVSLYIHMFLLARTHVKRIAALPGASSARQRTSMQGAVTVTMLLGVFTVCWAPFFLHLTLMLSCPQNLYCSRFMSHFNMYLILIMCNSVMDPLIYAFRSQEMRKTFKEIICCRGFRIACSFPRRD
Melanocyte-stimulating hormone receptor, sequence (Q01727 whole entry): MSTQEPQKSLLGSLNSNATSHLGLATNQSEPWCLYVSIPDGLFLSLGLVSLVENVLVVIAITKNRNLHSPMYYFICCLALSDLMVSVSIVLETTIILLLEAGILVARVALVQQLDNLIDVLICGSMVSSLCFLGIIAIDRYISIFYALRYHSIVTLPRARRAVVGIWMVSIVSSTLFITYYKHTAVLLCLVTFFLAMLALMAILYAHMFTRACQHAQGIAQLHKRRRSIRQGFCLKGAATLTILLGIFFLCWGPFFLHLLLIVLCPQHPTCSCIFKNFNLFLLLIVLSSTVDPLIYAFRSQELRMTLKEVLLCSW

Consider `NC1CCC(CC2CCC(N(C/C(Cl)=C/c3ccccc3)C(=O)c3cc4cc(OCc5ccccc5)ccc4[nH]3)CC2)CC1` (centres undefined), for which the inhibition constant Ki (usually the equilibrium dissociation constant of an inhibitor or competing ligand from its target) in assay [1] was found to be 4.2 µM; on Melanocortin receptor 3 it was 12 µM; at Melanocortin receptor 5 it was 12 µM; at Melanocortin receptor 4, 4.8 µM.

`NC1CCCC(NC(=O)N[C@H]2CC[C@H](N(Cc3ccccc3)C(=O)CCCc3c[nH]c4ccccc34)CC2)C1` (some centres undefined): the Ki is 1.8 µM in assay [1], 31 µM at Melanocortin receptor 3, 52 µM on Melanocortin receptor 5 and 11 µM on Melanocortin receptor 4.

Consider `NCCCCCN(CCCc1ccccc1)C(=O)Cc1c[nH]c2ccccc12`, for which the Ki in assay [1] is 12 µM; at Melanocortin receptor 3 it was 47 µM; at Melanocortin receptor 5, 7.9 µM; at Melanocortin receptor 4 it was 77 µM.

`NCCCCN(C/C(Cl)=C/c1ccccc1)C(=O)CCCc1c[nH]c2ccccc12`: the Ki turned out to be 2.4 µM in assay [1], 32 µM on Melanocortin receptor 3, 85 µM on Melanocortin receptor 5 and 5.4 µM on Melanocortin receptor 4.

As for `CCOc1cc(CN(C(=O)CCCc2c[nH]c3ccccc23)C2CCC(CC3CCC(N)CC3)CC2)ccc1OC` (centres undefined), the inhibition constant (Ki) is 2.9 µM in assay [1], 16 µM at Melanocortin receptor 3, 9.5 µM on Melanocortin receptor 5 and 2.1 µM at Melanocortin receptor 4.

`NC1CCC(CC2CCC(N(Cc3ccccc3Cl)C(=O)CCCc3c[nH]c4ccccc34)CC2)CC1` (centres undefined): the inhibition constant Ki is 3.2 µM in assay [1], 22 µM on Melanocortin receptor 3, 5.2 µM on Melanocortin receptor 5 and 2.8 µM at Melanocortin receptor 4.

As to `NCCCN(C/C=C/c1ccccc1)C(=O)CCc1c[nH]c2ccccc12`, the Ki worked out at 21 µM in assay [1], 65 µM at Melanocortin receptor 3, 11 µM at Melanocortin receptor 5 and 81 µM on Melanocortin receptor 4.

As for `NC1CCCC(N(Cc2ccccc2)C(=O)CCCc2c[nH]c3ccccc23)C1` (centres undefined), the Ki was 3.3 µM in assay [1], 30 µM on Melanocortin receptor 3, 18 µM at Melanocortin receptor 5 and 5.7 µM on Melanocortin receptor 4.

Take `COC(=O)c1ccc(CN(C(=O)CCCc2c[nH]c3ccccc23)C2CCC(CC3CCC(N)CC3)CC2)cc1` (centres undefined): the Ki stood at 2.1 µM in assay [1], 14 µM on Melanocortin receptor 3, 9.6 µM at Melanocortin receptor 5 and 2.2 µM at Melanocortin receptor 4.

As to `NC1CCC(CC2CCC(N(Cc3c(F)cccc3Cl)C(=O)CCCc3c(Cc4ccc(O)cc4)[nH]c4ccccc34)CC2)CC1` (centres undefined), the inhibition constant Ki turned out to be 1.1 µM in assay [1], 23 µM at Melanocortin receptor 3, 15 µM on Melanocortin receptor 5 and 1.9 µM on Melanocortin receptor 4.

As to `NCc1ccc(CN(C/C=C/c2ccccc2)C(=O)CCCc2c[nH]c3ccccc23)cc1`, the Ki in assay [1] was 2.6 µM; at Melanocortin receptor 3, 44 µM; on Melanocortin receptor 5, 9.7 µM; on Melanocortin receptor 4, 7.3 µM.

As to `N=C(N)NC1CCC(CC2CCC(N(C/C=C/c3ccccc3)C(=O)CCCc3c[nH]c4ccccc34)CC2)CC1` (centres undefined), the Ki was 3.5 µM in assay [1], 23 µM at Melanocortin receptor 3, 37 µM at Melanocortin receptor 5 and 38 µM at Melanocortin receptor 4.

In the case of `N[C@H]1CC[C@H](N(Cc2ccccc2)C(=O)CCCc2c[nH]c3ccccc23)CC1`, the inhibition constant (Ki) in assay [1] was 4.3 µM; on Melanocortin receptor 3, 50 µM; on Melanocortin receptor 5, 40 µM; at Melanocortin receptor 4 it was 8.4 µM.

Take `NCCCN(C/C(Cl)=C/c1ccccc1)C(=O)C(=O)c1c[nH]c2ccccc12`: the Ki stood at 1 µM in assay [1], 7.4 µM at Melanocortin receptor 3, 4.3 µM at Melanocortin receptor 5 and 6.8 µM on Melanocortin receptor 4.

`N[C@H]1CC[C@H](C[C@H]2CC[C@H](N(C/C(Cl)=C/c3ccccc3)C(=O)CCCc3c[nH]c4ccccc34)CC2)CC1`: the inhibitory constant (Ki) in assay [1] was 3.1 µM; at Melanocortin receptor 3, 45 µM; at Melanocortin receptor 5 it was 8.4 µM; on Melanocortin receptor 4 it was 6.8 µM.

For the compound `CC1CC(CC2CCC(N(Cc3ccccc3)C(=O)CCCc3c[nH]c4ccccc34)C(C)C2)CCC1N` (stereo in doubt; form 1), the inhibitory constant (Ki) in assay [1] is 0.69 µM; on Melanocortin receptor 3, 4.3 µM; on Melanocortin receptor 5, 1.7 µM; at Melanocortin receptor 4, 1.2 µM.
